Laboratory results published in patent US10844062B2, “Pyridine derivative inhibiting RAF kinase and vascular endothelial growth factor receptor, method for preparing same, pharmaceutical composition containing same, and use thereof” (SAMJIN PHARMACEUTICAL CO., LTD., priority 2016, dated 2020).

test system: LS513 KRAS G12V (colon); test: MTT assay; format: cell-based; conditions: Homo sapiens, LS-513, 72 h, Table 4; 3 days incubation; read-out: MTT assay IC50 KRAS mutant (Colon) LS513 KRAS G12V
Description: MTT assay is frequently used for the purpose of primary screening for the sensitivity of anticancer agents and to examine cytotoxicity. When cancer cells are treated with varying concentrations of any anticancer agent for a predetermined time to induce death of the cells and are then treated with MTT, and when the formation of formazan is measured, the concentration of the anticancer agent, at which about 50% of the cells survive, can be determined. This concentration value is called IC50. IC50 values differ between drugs, and thus can be characteristic of the drugs. Using this method, the effects of anticancer agents against cell proliferation can be quantitatively compared. Thus, in order to measure the cytotoxicity of samples, MTT assay was performed using CellTiter 96 Non-radioactive Cell Proliferation Assay Kit (Promega).
Cells in a cell suspension were counted with a hematocytometer, and then 200 μL of the cell suspension was added to each well of a 96 well plate at a desired concentration (cell amount determined depending on a cell line). After cell seeding, the cells were incubated in a CO2 incubator at 37° C. overnight. After one day of cell stabilization, the cells were treated with desired concentrations of the compounds. The cells were incubated in a CO2 incubator at 37° C. for 3 days, and then the sample was removed, and 200 μL of MTT solution was added to each well. After 2 hours of incubation, the MTT dilution was carefully shaken, and 200 μL of DMSO was added to each well, followed by shaking with a plate shaker for 60 minutes.

Row | Structure (SMILES) | IC50
1 | CC(C)(C#N)c1cccc(C(=O)Nc2ccc(Nc3ncccc3-c3ncnc4[nH]cnc34)c(F)c2)c1 [Example 39, N-(4-(3-(9H-Purin-6-Yl)Pyridin-2-Ylamino)-3-Fluorophenyl)-3-(2-Cyanopropan-2-Yl)Benzamide] | > 10 µM
2 | O=C(Nc1ccc(F)c(Nc2ncccc2-c2ncnc3[nH]cnc23)c1F)c1cc([N+](=O)[O-])cc(C(F)(F)F)c1 [Example 40, N-(3-(3-(9H-Purin-6-Yl)Pyridin-2-Ylamino)-2,4-Difluorophenyl)-3-Nitro-5-(Trifluoromethyl)Benzamide] | 0.163 µM
3 | CC(C)(C#N)c1cc(C(=O)Nc2ccc(F)c(Nc3ncccc3-c3ncnc4[nH]cnc34)c2F)ccc1Cl [Example 41, N-(3-(3-(9H-Purin-6-Yl)Pyridin-2-Ylamino)-2,4-Difluorophenyl)-4-Chloro-3-(2-Cyanopropan-2-Yl)Benzamide] | 0.475 µM
4 | CC(C)(C#N)c1cccc(C(=O)Nc2ccc(F)c(Nc3ncccc3-c3ncnc4[nH]cnc34)c2F)c1Cl [Example 42, N-(3-(3-(9H-Purin-6-Yl)Pyridin-2-Ylamino)-2,4-Difluorophenyl)-2-Chloro-3-(2-Cyanopropan-2-Yl)Benzamide] | 1.33 µM
5 | CC(C)(C#N)c1cc(F)cc(C(=O)Nc2ccc(F)c(Nc3ncccc3-c3ncnc4[nH]cnc34)c2F)c1 [Example 43, N-(3-(3-(9H-Purin-6-Yl)Pyridin-2-Ylamino)-2,4-Difluorophenyl)-3-(2-Cyanopropan-2-Yl)-5-Fluorobenzamide] | 0.402 µM
6 | CC(C)(C#N)c1cc(C(=O)Nc2ccc(F)c(Nc3ncccc3-c3ncnc4[nH]cnc34)c2F)cc(F)c1F [Example 44, N-(3-(3-(9H-Purin-6-Yl)Pyridin-2-Ylamino)-2,4-Difluorophenyl)-3-(2-Cyanopropan-2-Yl)-4,5-Difluorobenzamide] | 1.32 µM
7 | O=C(Nc1ccc(F)c(Nc2ncccc2-c2ncnc3[nH]cnc23)c1F)c1cccc(Cl)c1 [Example 45, N-(3-(3-(9H-Purin-6-Yl)Pyridin-2-Ylamino)-2,4-Difluorophenyl)-3-Chlorobenzamide] | > 10 µM
8 | CN(C)c1cccc(C(=O)Nc2ccc(F)c(Nc3ncccc3-c3ncnc4[nH]cnc34)c2F)c1 [Example 46, N-(3-(3-(9H-Purin-6-Yl)Pyridin-2-Ylamino)-2,4-Difluorophenyl)-3-(Dimethylamino)Benzamide] | 7.09 µM
9 | Cc1cccc(C(=O)Nc2ccc(F)c(Nc3ncccc3-c3ncnc4[nH]cnc34)c2F)c1 [Example 47, N-(3-(3-(9H-Purin-6-Yl)Pyridin-2-Ylamino)-2,4-Difluorophenyl)-3-Methylbenzamide] | > 10 µM
10 | O=C(Nc1cccc(Nc2ncccc2-c2ncnc3[nH]cnc23)c1)c1cccc(Cl)c1 [Example 48, N-(3-(3-(9H-Purin-6-Yl)Pyridin-2-Ylamino)Phenyl)-3-Chlorobenzamide] | 2.48 µM
11 | CC(C)(C#N)c1cccc(C(=O)Nc2ccc(F)c(Nc3ncccc3-c3ncnc4[nH]cnc34)c2)c1 [Example 49, N-(3-(3-(9H-Purin-6-Yl)Pyridin-2-Ylamino)-4-Fluorophenyl)-3-(2-Cyanopropan-2-Yl)Benzamide] | 0.192 µM
12 | O=C(Nc1ccc(F)c(Nc2ncccc2-c2ncnc3[nH]cnc23)c1)c1cccc(C(F)(F)F)c1 [Example 50, N-(3-(3-(9H-Purin-6-Yl)Pyridin-2-Ylamino)-4-Fluorophenyl)-3-(Trifluoromethyl)Benzamide] | 0.221 µM
13 | O=C(Nc1cccc(Nc2ncccc2-c2ncnc3[nH]cnc23)c1)c1cccc(C(F)(F)F)c1 [Example 51, N-(3-(3-(9H-Purin-6-Yl)Pyridin-2-Ylamino)Phenyl)-3-(Trifluoromethyl)Benzamide] | 5.67 µM
14 | O=C(Nc1ccc(F)c(Nc2ncccc2-c2ncnc3[nH]cnc23)c1F)c1ccc([N+](=O)[O-])cc1 [Example 52, N-(3-(3-(9H-Purin-6-Yl)Pyridin-2-Ylamino)-2,4-Difluorophenyl)-4-Nitrobenzamide] | > 10 µM
15 | Nc1cccc(C(=O)Nc2ccc(F)c(Nc3ncccc3-c3ncnc4[nH]cnc34)c2F)c1 [Example 54, N-(3-(3-(9H-Purin-6-Yl)Pyridin-2-Ylamino)-2,4-Difluorophenyl)-3-Aminobenzamide] | > 10 µM
16 | COC(=O)Nc1cccc(C(=O)Nc2ccc(F)c(Nc3ncccc3-c3ncnc4[nH]cnc34)c2F)c1 [Example 55, Methyl 3-(3-(3-(9H-Purin-6-Yl)Pyridin-2-Ylamino)-2,4-Difluorophenylcarbamoyl)Phenylcarbamate] | > 10 µM
17 | O=C(Nc1ccc(F)c(Nc2ncccc2-c2ncnc3[nH]cnc23)c1F)c1cnccn1 [Example 56, N-(3-(3-(9H-Purin-6-Yl)Pyridin-2-Ylamino)-2,4-Difluorophenyl)Pyrazine-2-Carboxamide] | > 10 µM
18 | O=C(Nc1ccc(F)c(Nc2ncccc2-c2ncnc3[nH]cnc23)c1F)c1ccccc1 [Example 57, N-(3-(3-(9H-Purin-6-Yl)Pyridin-2-Ylamino)-2,4-Difluorophenyl)Benzamide] | > 10 µM
19 | O=C(Nc1ccc(F)c(Nc2ncccc2-c2ncnc3[nH]cnc23)c1F)c1cc(C(F)(F)F)cc(C(F)(F)F)c1 [Example 58, N-2,4-Difluoro-3-[3-(9H-Purin-6-Yl)Pyridin-2-Ylamino)-Phenyl-3,5-Bistrifluoromethylbenzamide] | 0.407 µM
20 | O=C(Nc1cc(Nc2ncccc2-c2ncnc3[nH]cnc23)ccc1F)c1ccc(Cl)c(C(F)(F)F)c1 [Example 61, 4-Chloro-N-2-Fluoro-5-[3-(9H-Purin-6-Yl)Pyridin-2-Ylamino)Phenyl-3-(Trifluoromethyl)Benzamide] | 0.439 µM
21 | O=C(Nc1cc(Nc2ncccc2-c2ncnc3[nH]cnc23)ccc1F)c1cc([N+](=O)[O-])cc(C(F)(F)F)c1 [Example 62, N-2-Fluoro-5-[3-(9H-Purin-6-Yl)Pyridin-2-Ylamino)Phenyl-3-Nitro-5-(Trifluoromethyl)Benzamide] | 0.702 µM
22 | Cc1cccc(C(=O)Nc2cc(Nc3ncccc3-c3ncnc4[nH]cnc34)ccc2F)n1 [Example 64, N-2-Fluoro-5-[3-(9H-Purin-6-Yl)Pyridin-2-Ylamino)Phenyl-(6-Methylpyridin-2-Yl)Benzamide] | 0.3 µM
23 | O=C(Nc1cc(Nc2ncccc2-c2ncnc3[nH]cnc23)ccc1Cl)c1cccc(C(F)(F)F)c1 [Example 66, N-2-Chloro-5-[3-(9H-Purin-6-Yl)Pyridin-2-Ylamino)Phenyl-3-Trifluoromethylbenzamide] | 0.135 µM
24 | O=C(Nc1cc(Nc2ncccc2-c2ncnc3[nH]cnc23)ccc1Cl)c1cc(F)cc(C(F)(F)F)c1 [Example 67, N-2-Chloro-5-[3-(9H-Purin-6-Yl)Pyridin-2-Ylamino)Phenyl-3-Fluoro-5-Trifluoromethylbenzamide] | 6.59 µM
25 | Cc1ccc(Nc2ncccc2-c2ncnc3[nH]cnc23)cc1NC(=O)c1cccc(C(F)(F)F)c1 [Example 68, N-2-Methyl-5-[3-(9H-Purin-6-Yl)Pyridin-2-Ylamino)Phenyl-3-Trifluoromethylbenzamide] | 6.59 µM
26 | COc1ccc(Nc2ncccc2-c2ncnc3[nH]cnc23)cc1NC(=O)c1cccc(C(F)(F)F)c1 [Example 69, N-2-Methoxy-5-[3-(9H-Purin-6-Yl)Pyridin-2-Ylamino)Phenyl-3-Trifluoromethylbenzamide] | 7.11 µM
27 | COc1ccc(NC(=O)c2cccc(C(F)(F)F)c2)cc1Nc1ncccc1-c1ncnc2[nH]cnc12 [Example 70, N-4-Methoxy-5-[3-(9H-Purin-6-Yl)Pyridin-2-Ylamino)Phenyl-3-Trifluoromethylbenzamide] | 0.757 µM
